Results as given in patent US8106055B2, “Substituted amide compounds” (Gruenenthal GmbH, priority 2007, dated 2012).

Molecular target: T1, human μ opiate receptor (Homo sapiens, UniProt P35372)
T1 construct: purchased PerkinElmer Life Sciences, Zaventem, Belgium RB-HOM; host or cells: CHO-K1 cells (membrane preparation)
Assay: Affinity for the human μ opiate receptor ([3H]-naloxone displacement, CHO-K1 receptor membrane preparation, SPA)
Type: binding
Conditions: test concentration of 1 μM
Procedure, shortened: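 CHO-K1 membranes expressing human μ receptor incubated 90 min at room temperature with 1 nmol/l [3H]-naloxone and WGA-SPA beads in 50 mmol/l Tris-HCl, 0.06% BSA; 100 μmol/l naloxone defines non-specific binding. Values are % inhibition of specific binding at 1 μM; IC50 converted to Ki by Cheng-Prusoff.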

T1 sequence (P35372 whole entry): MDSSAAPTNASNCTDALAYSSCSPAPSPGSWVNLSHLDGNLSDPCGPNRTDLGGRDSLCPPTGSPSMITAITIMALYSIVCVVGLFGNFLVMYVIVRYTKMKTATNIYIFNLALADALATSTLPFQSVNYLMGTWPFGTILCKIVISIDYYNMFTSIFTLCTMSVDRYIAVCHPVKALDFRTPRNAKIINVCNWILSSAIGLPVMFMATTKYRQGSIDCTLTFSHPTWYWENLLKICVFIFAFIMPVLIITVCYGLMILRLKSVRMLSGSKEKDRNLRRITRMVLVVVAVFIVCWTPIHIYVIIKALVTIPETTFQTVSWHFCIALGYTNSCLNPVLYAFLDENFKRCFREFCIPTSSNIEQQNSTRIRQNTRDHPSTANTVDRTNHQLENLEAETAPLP

| SMILES | μ (binding on the μ opioid receptor, % inhibition) [%] |
| --- | --- |
| COc1cc(C)c(S(=O)(=O)N2CCC(OCC(=O)NCC3CCC(C(CCc4ccccc4)N(C)C)CC3)C2)c(C)c1 (stereo not shown) [Example 565] | 20 |
| CN(C)C(c1ccc(F)cc1)C1CCC(CCNC(=O)COCCN(C)S(=O)(=O)c2ccc(Cl)cc2Cl)CC1 (stereo not shown) [Example 586] | 3 |
| CN(C)C(c1ccc(F)cc1)C1CCC(CCNC(=O)COC2CCN(S(=O)(=O)c3ccccc3)CC2)CC1 (stereo not shown) [Example 553] | 26 |
| CN(C)C(CCc1ccccc1)C1CCC(CNC(=O)COC2CCN(S(=O)(=O)c3ccc(F)cc3)C2)CC1 (stereo not shown) [Example 574] | 18 |
| CN(C)C(c1ccc(F)cc1)C1CCC(CNC(=O)COC2CCN(S(=O)(=O)c3ccccc3)CC2)CC1 (stereo not shown) [Example 568] | 11 |
| Cc1cc(C)c(S(=O)(=O)N(C)CCOCC(=O)NC2CCC(C(c3ccccc3)N(C)C)CC2)c(C)c1 (stereo not shown) [Example 63, N-(4-((dimethylamino)(phenyl)methyl)cyclohexyl)-2-(2-(N,2,4,6-tetramethylphenylsulfamido)ethoxy)acetamide] | 94 |
| COc1cc(C)c(S(=O)(=O)N(CCOCC(=O)NCCC2CCC(C(c3ccc(Cl)cc3)N(C)C)CC2)Cc2ccccc2)c(C)c1 (stereo not shown) [Example 569] | 10 |

Same assay, conditions: test concentration of 1 μM; 1 µM

| SMILES | μ (binding on the μ opioid receptor, % inhibition) [%] |
| --- | --- |
| COc1ccc(S(=O)(=O)N2CCCCC2COCC(=O)NCC2CCC(C(CCc3ccccc3)N(C)C)CC2)cc1OC (stereo not shown) [Example 570] | 16 |
| COc1ccc(S(=O)(=O)N2CCCCC2COCC(=O)NCC2CCC(C(CCc3ccccc3)N(C)C)CC2)c(OC)c1 (stereo not shown) [Example 486] | 36 |
| COc1ccc(S(=O)(=O)N2CCCCC2COCC(=O)NCCC2CCC(C(c3cccc(F)c3)N(C)C)CC2)cc1OC (stereo not shown) [Example 581] | 9 |

Same assay, conditions: test concentration of 1 μM; read-out: μ (binding on the μ opioid receptor, % inhibition)

| SMILES | inhibition at 1 µM [%] |
| --- | --- |
| CN(C)C(c1ccccc1)C1CCC(CNC(=O)COC2CCCN(S(=O)(=O)c3ccccc3)C2)CC1 (stereo not shown) [Example 114, N-((4-((dimethylamino)(phenyl)methyl)cyclohexyl)methyl)-2-(1-(phenylsulfonyl)piperidin-3-yloxy)acetamide] | 85 |
| CCN(CCOCC(=O)NCC1CCC(C(c2cccc(F)c2)N(C)C)CC1)S(=O)(=O)c1c(C)cc(OC)c(C)c1C (stereo not shown) [Example 117, N-((4-((dimethylamino)(3-fluorophenyl)methyl)cyclohexyl)methyl)-2-(2-(N-ethyl-4-methoxy-2,3,6-trimethylphenylsulfonamido)ethoxy)acetamide] | 92 |
| CN(C)C(c1ccccc1)C1CCC(NC(=O)COCCN(C)S(=O)(=O)c2c(Cl)cccc2Cl)CC1 (stereo not shown) [Example 135, 2-(2-(2,6-dichloro-N-methylphenylsulfonamido)ethoxy)-N-(4-((dimethylamino)(phenyl)methyl)cyclohexyl)acetamide] | 89 |
| CN(C)C(c1cccs1)C1CCC(CNC(=O)COCC2CCCN(S(=O)(=O)c3ccccc3)C2)CC1 (stereo not shown) [Example 101, N-((4-((dimethylamino)(thiophen-2-yl)methyl)cyclohexyl)methyl)-2-((1-(phenylsulfonyl)piperidin-3-yl)methoxy)acetamide] | 92 |
| COc1cc(C)c(S(=O)(=O)N2CCC(OCC(=O)NCC3CCC(C(c4cccs4)N(C)C)CC3)CC2)c(C)c1C (stereo not shown) [Example 104, N-((4-((dimethylamino)(thiophen-2-yl)methyl)cyclohexyl)methyl)-2-(1-(4-methoxy-2,3,6-trimethylphenylsulfonyl)piperidin-4-yloxy)acetamide] | 90 |
| CN(C)C(c1ccccc1)C1CCC(CNC(=O)COC2CCN(S(=O)(=O)c3cccc(C(F)(F)F)c3)C2)CC1 (stereo not shown) [Example 113, N-((4-((dimethylamino)(phenyl)methyl)cyclohexyl)methyl)-2-(1-(3-(trifluoromethyl)phenylsulfonyl)pyrrolidin-3-yloxy)acetamide] | 90 |
